In patent US20110189169A1, “COMBINATION OF HGF INHIBITOR AND PTEN AGONIST TO TREAT CANCER” (GALAXY BIOTECH, LLC, priority 2008, published 2011):

How the values were obtained:
cMet receptor = cMet receptor (Homo sapiens, UniProt P08581); details: read-out: Kd, high affinity binding site; cited from earlier work
[1] = biological target: heparin sulfate proteoglycans (HSPG); details: read-out: Kd, low affinity binding site; cited from earlier work
U-87 MG cells = assay: Subcutaneous human glioblastoma U-87 MG tumor xenograft model; assay type: in vivo, athymic nude mice (BALB/c-nu/nu); details: HuL2G7 0.5 mg/kg i.v. days 12 and 18
Experimental: The combination effect of HuL2G7 with Rapamycin was examined in human glioblastoma U-87 MG tumor xenograft model. Female athymic nude mice (BALB/c-nu/nu, 30 animals) were purchased from Charles River Laboratories (Kanagawa, Japan). Mice were housed in a barrier facility with 12-h light/dark cycles and provided with food and tap water ad libitum and maintained for three weeks. U-87 MG cells (2.5×10^6 in 100 μL) were suspended with 50% Matrigel (BD Biosciences) buffered with Hanks. balanced salt solution (Invitrogen Corp, Carlsbad, Calif., USA) and inoculated subcutaneously into the right-flank of each mouse. After the tumor xenografts were established, at day 12 after inoculation, mice with tumors (approximately 95-272 mm^3) were randomized into groups of 4 (n=6) based on tumor volumes so as to minimize variation in tumor volumes. Then each group was treated with vehicle, HuL2G7, Rapamycin, or both drugs. […] Tumor volumes were assessed by bilateral vernier caliper measurement at days 12, 15, 18, 22, and 26 after inoculation and calculated using the formula, length×width^2×½, where length was taken to be the longest diameter across the tumor and width the corresponding perpendicular. Tumor growth was evaluated by the following formula: T/C (%)=ΔT/ΔC×100, where ΔT and ΔC are changes in tumor volume for each treated and vehicle control group. […]

cMet receptor, sequence (P08581 25-1390): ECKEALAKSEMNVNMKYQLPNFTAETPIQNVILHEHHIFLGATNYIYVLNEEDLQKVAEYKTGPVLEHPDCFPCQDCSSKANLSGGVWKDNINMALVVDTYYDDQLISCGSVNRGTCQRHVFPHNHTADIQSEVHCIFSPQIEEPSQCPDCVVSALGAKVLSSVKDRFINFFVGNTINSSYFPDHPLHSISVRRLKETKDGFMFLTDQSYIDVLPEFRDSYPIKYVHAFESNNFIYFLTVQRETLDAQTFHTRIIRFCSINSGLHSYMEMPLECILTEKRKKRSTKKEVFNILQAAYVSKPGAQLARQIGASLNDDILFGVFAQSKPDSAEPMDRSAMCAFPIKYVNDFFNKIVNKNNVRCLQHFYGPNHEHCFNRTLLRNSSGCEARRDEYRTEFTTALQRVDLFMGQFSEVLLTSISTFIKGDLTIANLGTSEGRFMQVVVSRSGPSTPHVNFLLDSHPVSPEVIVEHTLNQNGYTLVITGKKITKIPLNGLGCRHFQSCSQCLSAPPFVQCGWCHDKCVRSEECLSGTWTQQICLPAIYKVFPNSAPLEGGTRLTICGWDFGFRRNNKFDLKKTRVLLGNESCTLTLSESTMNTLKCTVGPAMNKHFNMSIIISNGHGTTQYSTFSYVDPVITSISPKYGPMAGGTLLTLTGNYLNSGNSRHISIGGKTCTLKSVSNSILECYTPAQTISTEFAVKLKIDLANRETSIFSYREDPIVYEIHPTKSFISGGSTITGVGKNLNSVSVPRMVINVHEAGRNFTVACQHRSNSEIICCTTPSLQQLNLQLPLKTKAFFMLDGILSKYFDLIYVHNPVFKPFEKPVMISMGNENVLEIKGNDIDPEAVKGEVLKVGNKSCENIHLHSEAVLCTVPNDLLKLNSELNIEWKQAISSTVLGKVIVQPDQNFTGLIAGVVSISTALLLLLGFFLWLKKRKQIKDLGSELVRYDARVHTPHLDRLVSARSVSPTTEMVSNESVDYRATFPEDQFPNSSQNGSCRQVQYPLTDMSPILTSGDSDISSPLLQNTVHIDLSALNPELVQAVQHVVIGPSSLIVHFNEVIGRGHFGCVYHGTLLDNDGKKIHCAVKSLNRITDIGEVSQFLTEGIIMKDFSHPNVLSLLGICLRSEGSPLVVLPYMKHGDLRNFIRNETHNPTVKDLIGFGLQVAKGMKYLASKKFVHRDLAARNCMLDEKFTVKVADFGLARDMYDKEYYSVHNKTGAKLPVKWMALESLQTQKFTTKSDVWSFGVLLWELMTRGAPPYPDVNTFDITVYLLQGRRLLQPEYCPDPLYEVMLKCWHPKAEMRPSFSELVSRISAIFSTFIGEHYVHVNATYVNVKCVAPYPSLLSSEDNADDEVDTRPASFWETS

general observations of animals (U-87 MG cells; Rapamycin 0.1 mg/kg i.p. days 12-26, or both)	Compound	Kd (cMet receptor) [nM]	Kd [1] [nM]	T/C (%)=ΔT/ΔC×100 (U-87 MG cells; day 26, Rapamycin 0.1 mg/kg i.p. once-daily days 12-26) [%]
–	HGF: Human Hepatocyte Growth Factor, 102 kDa heterodimeric polypeptide, ligand of cMet	0.2	1	–
no abnormalities in general observations	CO[C@H]1C[C@@H]2CC[C@@H](C)[C@@](O)(O2)C(=O)C(=O)N2CCCC[C@H]2C(=O)O[C@H]([C@H](C)C[C@@H]2CC[C@@H](O)[C@H](OC)C2)CC(=O)[C@H](C)/C=C(\C)[C@@H](O)[C@@H](OC)C(=O)[C@H](C)C[C@H](C)/C=C/C=C/C=C/1C [rapamycin, reference compound]	–	–	9.6
